These results are taken from patent US11980633B2, “Method for treating cancer using a combination of DNA-damaging agents and DNA-PK inhibitors” (Vertex Pharmaceuticals Incorporated, priority 2016, dated 2024).

For this test, the system named is pKAP1 and pH2AX levels in MDA-MB-436 and MDA-MB-468 breast cancer cells. The test is described as follows: pKAP1 and pH2AX immunoblot, Compound B-2 and doxorubicin in MDA-MB-436 and MDA-MB-468 cells. Format: cell-based, human. To be noted: 1 μM Compound B-2 + 500 nM doxorubicin; at 8 h. Here is the method:
Materials and Methods. The human cancer cell lines A549 (CCL-185), DU4475 (HTB-123), MDA-MB-436 (HTB-130), and MDA-MB-468 (HTB-132) were obtained from American Type Culture Collection (ATCC; Manassas, VA). A 10 mM stock solution of Compound B-1 or Compound B-2 was prepared in DMSO and stored at −20° C. Etoposide and doxorubicin were purchased from Sigma-Aldrich (St. Louis, MO).
The A549 human lung cancer cell line was purchased from ATCC and was cultured in DMEM supplemented with 10% fetal bovine serum, 1× non-essential amino acids and 1× Penicillin/Streptomycin (complete medium). Cells were maintained at a subconfluent state by passaging every 2-3 days. Human breast cancer cells lines DU4475, MDA-MB-436, and MDA-MB-468 were purchased from ATCC and cultured in DMEM supplemented with 10% fetal bovine serum, 1× Glutamax and Penicillin/Streptomycin. Cells were maintained at a subconfluent state by passaging every 2-3 days.
Compound B-1 and Compound B-2 used in these experiments were not prepared as a co-crystals.
Breast cancer cell lines grown in 24-well (Costar, catalog #3526) or 6-well (Costar, catalog #3516) tissue culture plates to 70-80% confluence were pre-incubated with 1 μM Compound B-2 or DMSO for 15 min. Doxorubicin was added to a final concentration of either 100 nM or 500 nM from a 1000× stock prepared in DMSO. Cells were then incubated for the indicated amount of time and harvested for analysis.
Cell Lysis and Western Blot Analysis. […]
To determine that enhancement of DNA damage by concurrent treatment of cells with Compound B-2 and doxorubicin was not specific to DU4475 cells, two additional breast cancer cell lines, MDA-MB-436 and MDA-MB-468, were also pre-incubated with 1 μM Compound B-2 for 15 min, followed by addition of 500 nM doxorubicin. Cells were harvested at various time points following doxorubicin addition and analyzed for levels of pKAP1 and pH2AX by immunoblotting.

Turning to `[2H]c1nc(C)nc([2H])c1-c1cc(NC[C@@H](C)c2cccc3c(C(=O)NC)ccnc23)ncn1` [Compound B-2], the “pH2AX level, max enhancement vs doxorubicin alone” value is listed as 1.5 fold and the “pKAP1 level, max enhancement vs doxorubicin alone” value is recorded as 3.5-4 fold.
